Values belong to the substance of their own block, whether it stands above or below them.
Assays:
GFP-LC3B K51A = assay: Co-immunoprecipitation with GFP-LC3B K51A; format: binding, human; details: α-GFP IP, Western blot
Method: (§1) Cells were scraped, centrifuged at 500 g for 5 min, and lysed in 150 µL CHAPS lysis buffer (2% CHAPS, 1% Triton X-100, 137 mM NaCl, 2 mM EDTA, 10% glycerol, and 20 mM Tris-HCl, pH 8.0) containing protease and phosphatase inhibitors. 5 µL of total lysate was kept as Input sample and 145 µL of cell lysate was incubated with 12.5 µL α-GFP (1:40, Roche)-coupled Dynabeads Protein G (purchased from Invitrogen) for 2 hrs at 4 °C. This step was followed by three washing steps using 0.02% Tween-20/PBS and immunoprecipitated proteins were eluted from Dynabeads by adding 4X LDS buffer (purchased from Invitrogen) and 10X sample reducing agent (purchased from Invitrogen) to the beads. Heating at 70 °C for 10 min will denaturized the proteins to analyze them by Western blotting.

EGFP-LC3B K49A = assay: Co-immunoprecipitation with EGFP-LC3B K49A; format: binding, human; details: Figs S3 and S7; vs wild type LC3B
Method: as §1

GFP-LC3B wild type = assay: Co-immunoprecipitation with GFP-LC3B wild type; format: binding, human; details: α-GFP IP, Western blot
Method: as §1

GST-LC3B [1] = assay: GST pull-down with GST-LC3B wild type; format: binding, human; details: for interaction with GST-LC3B wild type: Flag-Nix in cell lysate, Fig. 3a; for interaction with GST-LC3B: Fig. 1b, triplicates
Method: (§2) GST fusions of various proteins (pGEX plasmids) were expressed in BL21 E. coli. Fusion protein expression was induced by adding 0.5 mM IPTG for 4 hrs. Bacteria were lysed in 20 mM Tris-HCl, pH 7.5, 10 mM EDTA, pH 8.0, 5 mM EGTA, 150 mM NaCl supplemented with 2 mg/ml lysozyme. GST fusion proteins were subsequently bound to pre-washed Glutathione-Sepharose 4B beads (GE Healthcare). After several washes, fusion protein-bound beads were used directly in binding assays.
(§3) HEK293 or HeLa cells were transfected with expression constructs encoding the protein of interest using JetPRIME (Polyplus Transfection). 24 hrs post-transfection cells were lysed in 50 mM HEPES, pH 7.5, 150 mM NaCl, 1 mM EDTA pH 8.0, 1 mM EGTA, 10% glycerol, 1% Triton X-100, 25 mM NaF, […] and lysates were incubated for 4 hrs with immobilized GST-fusion proteins at 4 °C. Following 5 washes, beads with co-precipitated proteins were resuspended in 2x SDS-PAGE loading buffer, boiled and loaded onto 10% or 12% SDS-PAGE gels for analysis. All GST pull-down experiments were performed in triplicates.

[2] = test system: HEK293 cells (mitochondrial loss); assay: Mitochondrial removal by flow cytometry; format: cell-based; details: HEK293, GFP-Nix, 10 μM CCCP 24 hours; vs wild type
Method: HEK293 cells were transfected with GFP expression constructs encoding the protein of interest using JetPRIME (Polyplus Transfection). 24 hrs post-transfection cells were treated with 10 µM CCCP for 24 hrs. After treatment, cells were washed with PBS, trypsinized with trypsin for 5 min and resuspended by gentle pipetting. Trypsin-mediated digestion was arrested by the addition of DMEM supplemented with 10% FBS and cells were centrifuged at 500 g for 5 min. To remove cell clumps, cells were resuspended in PBS and filtered through the 70 µm Cell Strainer (BD Falcon). Approximately 10^6 cells were acquired for further flow cytometry analysis. Before fixation, cells were washed twice with FACS buffer (2% FBS, 0,02% NaN3 in PBS) and each time centrifuged at 500 g for 5 min. Cells were fixed with freshly prepared 4% paraformaldehyde for 10 min at room temperature, washed twice with FACS buffer and finally resuspended in […] prior to analysis. […] The acquired data were gated for singlets by generating FSC-A vs FSC-H plot after which dead cells were excluded and the mean fluorescence in FL1 channel was collected. The mean fluorescence of the CCCP and CCCP/Baf treated samples was compared with the untreated control and the results were expressed as a percentage of the retained mitochondria of at least two independent experiments. Results were analyzed using FlowLogic software.

GST-LC3B K49A = assay: GST pull-down with GST-LC3B K49A; format: binding, human; details: Fig. 3a, vs wild type LC3B
Method: as §2, §3

[3] = test system: HeLa cells expressing GFP-LC3B wild type; assay: Colocalization / sequestration of mitochondria with GFP-LC3B wild type, fluorescence microscopy; format: cell-based; details: Fig. 4a
Method: (§4) HeLa cells were seeded, grown on coverslips or 8-well microscopy slides (ibidi) and transfected with either wild type or mutant Nix or Bnip3 together with wild type or mutant LC3B constructs using JetPRIME transfection reagent according to manufacturer’s instructions. 24 hrs post transfection cells were fixed in 2% or 4% paraformaldehyde and permeabilized with 0,1% Triton X-100 solution. Cells were blocked in 5% BSA/PBS/0.1% Triton X-100 for 1 hr at room temperature or 4 °C overnight. Primary and secondary antibodies were diluted in blocking solution and washed in 0,1% Triton X-100/PBS. Coverslips were mounted in Prolong mounting media (Invitrogen). Cells in 8-well microscopy slides were placed in PBS following staining. Cells were imaged using a Zeiss AxioVision or DeltaVision RT microscope system (Applied Precision). Quantification of Nix-LC3B colocalization was performed as follows: for each Nix construct, LC3B positive dots (signals) were numbered in 100 cells. Only clear and well-defined LC3B signals are taken into consideration, while weak and oversized signals were excluded from the analysis.
HeLa cells were plated in 8-well microscopy µ-slides (ibidi) were transfected GFP-LC3 and RFP-Nix WT, S34,35A or S34,35E. From Z-stacks, single cells were cropped for analysis by ImageJ. Binary masks for each slice within ≥10 representative Z-stacks per condition of (i) Nix-labeled mitochondria and (ii) GFP-LC3 were generated by image segmentation. Slice-by-slice co-localization of mitochondrial and AV masks were calculated using the Boolean AND function. All slices for each binary stack were summed, and the ratio of area calculated from mitochondrialy-localized AV over total mitochondria content is reported as a cellular fraction.

[4] = test system: HeLa cells (recruitment of LC3B to mitochondria); assay: LC3B positive vesicles per 100 cells, immunofluorescence microscopy; format: cell-based; details: 10 µM CCCP for 2 hours, vs wild type and S34,35A, three independent experiments, Fig. 3b
Method: as §4

[5] = test system: cells expressing LC3B K49A; assay: Colocalization with LC3B K49A, fluorescence microscopy; format: cell-based; details: vs wild type LC3B
Method: as §4

[6] = test system: HeLa cells expressing GFP-LC3B K51A; assay: Colocalization with GFP-LC3B K51A, fluorescence microscopy; format: cell-based; details: Fig. 4d,e
Method: as §4, with “Only clear and well-defined LC3B signals are taken into consideration, while weak and oversized signals were excluded from the analysis.” left out
HeLa cells were plated in 8-well microscopy µ-slides (ibidi) were transfected GFP-LC3 and RFP-Nix WT, S34,35A or S34,35E. […] Slice-by-slice co-localization of mitochondrial and AV masks were calculated using the Boolean AND function. All slices for each binary stack were summed, and the ratio of area calculated from mitochondrialy-localized AV over total mitochondria content is reported as a cellular fraction.

GST-LC3A = assay: GST pull-down with GST-LC3A; format: binding, human; details: Fig. 1b, triplicates
Method: as §2, §3

EGFP-LC3B R10A = assay: Co-immunoprecipitation with EGFP-LC3B R10A; format: binding, human; details: α-GFP IP, 24 hrs post transfection, Fig. S5a
Method: as §1

EGFP-LC3B R11A = assay: Co-immunoprecipitation with EGFP-LC3B R11A; format: binding, human; details: α-GFP IP, 24 hrs post transfection, Fig. S5a
Method: as §1

GST-LC3B [7] = details: ref [17]; cited from earlier work
Method: Recently, it was determined that phosphorylation of serine residues juxtaposed to the LIR motif is responsible for the activation of receptor functions for Optn and Bnip3[5],[14]. […] Therefore, we mutated Ser34 and Ser35 in Nix to alanine, glutamic acid or aspartic acid re ...

LC3B K49A = biological target: T1, LC3B K49A (Homo sapiens, UniProt Q9GZQ8, K49A); assay: ITC, LC3B K49A mutant; format: binding
T1 construct: Ub3 (ubiquitin fusion) (N); made in house
Method: (§5) Before the experiment, the proteins and peptides were equilibrated with a buffer containing 40 mM Na2HPO4, 80 mM NaCl at pH 7.0, and supplied with 5 mM protease inhibitors cocktail.
(§6) All titration experiments were performed at 25 °C using a VP-ITC microcalorimeter (MicroCal Inc., MA, USA). The ITC-data were analyzed with the ITC-Origin 7.0 software with a “one-site” binding model. The peptides at concentrations of 0.31 mM were titrated into 0.018 mM LC3B proteins in 25 steps. The proteins and peptides concentrations were calculated from the UV-absorption at 280 nm by Nanodrop spectrophotometer (Thermo Fisher Scientific, DE, USA).

LC3B wild type = biological target: T2, LC3B wild type (Homo sapiens, UniProt Q9GZQ8); assay: Isothermal titration calorimetry (ITC), LC3B wild type; format: binding
T2 construct: Ub3 (ubiquitin fusion) (N); made in house
Method: as §5, §6

Substance: Bnip3 wild type: mitophagy receptor Bnip3, homolog of Nix [reference compound]
co-immunoprecipitation with GFP-LC3B K51A (GFP-LC3B K51A): does not
affinity to LC3B K49A (in words) (EGFP-LC3B K49A): increased affinity

Substance: Bnip3S17,24E: Bnip3 S17,24E mutant [reference compound]
co-immunoprecipitation with GFP-LC3B wild type (GFP-LC3B wild type): strongly bound
co-immunoprecipitation with GFP-LC3B K51A (GFP-LC3B K51A): absent

Substance: Nix S34,35A: Nix with serine-to-alanine mutations to disable phosphorylation
co-immunoprecipitation with GFP-LC3B wild type (GFP-LC3B wild type): no interaction
interaction with GST-LC3B wild type (GST-LC3B [1]): did not interact
mitochondrial loss (fraction of removed mitochondria), in words [2]: slightly reduced compared to wild type
interaction with GST-LC3B K49A (GST-LC3B K49A): strongly increased binding
targeting of mitochondria to LC3B autophagosomes / colocalization with GFP-LC3B [3]: lack of such a recruitment
targeting of mitochondria to LC3B autophagosomes / colocalization with GFP-LC3B ([3]; listed as RFP-Nix S34,35A): does not colocalize

Substance: Nix S34,35D: phosphomimetic Nix double mutant
recruitment of LC3B-positive vesicles [4]: increased recruitment of LC3B-positive vesicles compared to wild type and S34,35A

Substance: Nix S34,35E: phosphomimetic Nix double mutant
co-immunoprecipitation with GFP-LC3B wild type (GFP-LC3B wild type): strong interaction
recruitment of LC3B-positive vesicles [4]: increased recruitment of LC3B-positive vesicles compared to wild type and S34,35A
colocalization with LC3B K49A [5]: increased
interaction with GST-LC3B wild type (GST-LC3B [1]): robustly bound
mitochondrial loss (fraction of removed mitochondria), in words [2]: more rapid
co-immunoprecipitation with GFP-LC3B K51A (GFP-LC3B K51A): unable to immunoprecipitate
targeting of mitochondria to LC3B autophagosomes / colocalization with GFP-LC3B [3]: enhanced targeting of mitochondria to LC3B autophagosomes relative to wild type Nix
targeting of mitochondria to LC3B autophagosomes / colocalization with GFP-LC3B ([3]; listed as S34,35E): enhanced colocalization
colocalization with GFP-LC3B K51A [6]: loss of cellular colocalization

Substance: Nix S34E: single phosphomimetic Nix mutant
interaction with GST-LC3B (GST-LC3B [1]): stronger than wild type Nix but weaker than the double serine phosphomimetic S34,35D Nix mutant
interaction with GST-LC3A (GST-LC3A): stronger than wild type Nix but weaker than the double serine phosphomimetic S34,35D Nix mutant

Substance: Nix S35E: single phosphomimetic Nix mutant
interaction with GST-LC3B (GST-LC3B [1]): stronger than wild type Nix but weaker than the double serine phosphomimetic S34,35D Nix mutant
interaction with GST-LC3A (GST-LC3A): stronger than wild type Nix but weaker than the double serine phosphomimetic S34,35D Nix mutant

Substance: Nix wild type: mitophagy receptor Nix, wild type, expressed in cells
co-immunoprecipitation with GFP-LC3B wild type (GFP-LC3B wild type): no interaction
interaction with GST-LC3B (GST-LC3B [1]): considerably weaker than with LC3A
co-immunoprecipitation with LC3B R10A (EGFP-LC3B R10A): do not coimmunoprecipitate
co-immunoprecipitation with GFP-LC3B K51A (GFP-LC3B K51A): fails to coimmunoprecipitate
interaction with GST-LC3B K49A (GST-LC3B K49A; listed as Nix): increased affinity
interaction with GST-LC3B K49A (GST-LC3B K49A; listed as wild type Nix): strongly increased binding
co-immunoprecipitation with LC3B R11A (EGFP-LC3B R11A): do not coimmunoprecipitate
targeting of mitochondria to LC3B autophagosomes / colocalization with GFP-LC3B [3]: shows colocalization
interaction rank of LC3B among Nix partners (GST-LC3B [7]): weakest
colocalization with GFP-LC3B K51A [6]: does not colocalize

affinity to LC3B K49A (in words) (LC3B K49A): weak
affinity to wild type LC3B (in words) (LC3B wild type): weak
Substance: SQQGGWGTVFSLESEE [arbitrary LIR-similar peptide, residues 196–210 of the human protein BCL2L13 - analog of the yeast Atg32 protein]
